Assays:
M1 (h) = target: T1, M1 (h) (Homo sapiens, UniProt P11229); experiment: Radioligand binding M1 (h) (antagonist radioligand), [^3H]pirenzepine, CHO cells
T1 construct: expressed in transfected cells; host or cells: CHO cells
T1 sequence (P11229 1-460): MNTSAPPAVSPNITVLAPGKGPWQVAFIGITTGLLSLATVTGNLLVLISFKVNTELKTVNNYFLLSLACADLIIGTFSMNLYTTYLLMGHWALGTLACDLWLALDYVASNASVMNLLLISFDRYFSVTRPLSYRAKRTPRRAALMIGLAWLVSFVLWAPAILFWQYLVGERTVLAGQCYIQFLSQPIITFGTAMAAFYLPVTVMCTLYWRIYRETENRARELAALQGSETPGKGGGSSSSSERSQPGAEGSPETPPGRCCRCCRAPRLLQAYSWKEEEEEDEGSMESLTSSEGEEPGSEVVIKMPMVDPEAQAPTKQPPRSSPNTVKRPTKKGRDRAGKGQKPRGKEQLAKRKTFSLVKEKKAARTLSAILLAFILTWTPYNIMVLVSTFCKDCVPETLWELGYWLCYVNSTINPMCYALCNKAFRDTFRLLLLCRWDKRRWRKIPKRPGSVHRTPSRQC
Procedure: Methods—Binding Assays: In vitro binding assays were performed using human recombinant receptors expressed in mammalian cell lines. Receptors were expressed in either HEK-293 or CHO cells depending on the target, and assay conditions (radioligand, concentration, nonspecific competitor, temperature, and incubation time) were optimized for each receptor. All assays were conducted in triplicate, and specific binding was quantified by scintillation counting as the detection method for each listed assay.
Specific binding was expressed as a percentage of control-specific binding, and percent inhibition was calculated using the formula in Ex. 8 above. Half-maximal inhibitory concentrations (IC50) were determined by non-linear regression analysis of the inhibition curves using the Hill equation (see Ex. 8). Inhibition constants (Ki) were calculated using the Cheng-Prusoff equation (see Ex. 8). KD values used in these calculations had been previously established for each receptor under the assay conditions (see Table 6). Data analysis was performed using software developed at Cerep and validated against SigmaPlot 4.0 for Windows.

5-HT2A (h) = target: T2, 5-HT2A (h) (Homo sapiens, UniProt P28223); experiment: Radioligand binding 5-HT2A (h) (agonist radioligand), [^125I](±)DOI, HEK-293 cells
T2 construct: host or cells: HEK-293 cells
T2 sequence (P28223 whole entry, looked up): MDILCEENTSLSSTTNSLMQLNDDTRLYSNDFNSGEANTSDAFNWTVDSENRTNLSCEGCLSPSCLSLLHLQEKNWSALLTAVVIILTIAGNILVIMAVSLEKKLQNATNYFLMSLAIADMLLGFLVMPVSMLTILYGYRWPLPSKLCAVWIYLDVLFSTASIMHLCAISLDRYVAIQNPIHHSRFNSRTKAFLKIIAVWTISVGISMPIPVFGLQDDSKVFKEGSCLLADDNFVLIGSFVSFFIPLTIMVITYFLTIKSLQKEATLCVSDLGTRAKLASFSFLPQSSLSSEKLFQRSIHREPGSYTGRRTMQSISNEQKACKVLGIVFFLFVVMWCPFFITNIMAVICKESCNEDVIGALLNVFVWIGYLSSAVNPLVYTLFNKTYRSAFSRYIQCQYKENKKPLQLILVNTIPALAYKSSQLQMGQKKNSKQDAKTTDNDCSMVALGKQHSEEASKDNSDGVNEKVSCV

5-HT2C = target: T3, 5-HT2C (Homo sapiens, UniProt P28335); experiment: cell-based; conditions: IP-1 accumulation
T3 construct: host or cells: HEK293

5-HT2C (h) = target: T4, 5-HT2C (h) (Homo sapiens, UniProt P28335); experiment: Radioligand binding 5-HT2C (h) (agonist radioligand), [^125I](±)DOI, HEK-293 cells
T4 construct: host or cells: HEK-293 cells
T4 sequence (P28335 33-458): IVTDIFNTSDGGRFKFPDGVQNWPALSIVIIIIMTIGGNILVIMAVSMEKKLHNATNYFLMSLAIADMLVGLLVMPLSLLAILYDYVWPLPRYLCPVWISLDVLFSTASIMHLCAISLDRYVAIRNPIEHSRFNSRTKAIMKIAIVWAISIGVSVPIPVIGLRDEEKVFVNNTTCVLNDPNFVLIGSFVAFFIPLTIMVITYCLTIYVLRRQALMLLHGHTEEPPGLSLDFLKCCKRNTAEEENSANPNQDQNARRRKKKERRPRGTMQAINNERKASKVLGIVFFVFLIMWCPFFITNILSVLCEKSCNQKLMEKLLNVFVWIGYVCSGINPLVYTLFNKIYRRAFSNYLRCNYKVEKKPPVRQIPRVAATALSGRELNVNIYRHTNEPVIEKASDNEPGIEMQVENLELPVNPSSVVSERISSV

5-HT2B (h) = target: T5, 5-HT2B (h) (Homo sapiens, UniProt P41595); experiment: Radioligand binding 5-HT2B (h) (agonist radioligand), [^125I](±)DOI, CHO cells
T5 construct: host or cells: CHO cells
T5 sequence (P41595 whole entry): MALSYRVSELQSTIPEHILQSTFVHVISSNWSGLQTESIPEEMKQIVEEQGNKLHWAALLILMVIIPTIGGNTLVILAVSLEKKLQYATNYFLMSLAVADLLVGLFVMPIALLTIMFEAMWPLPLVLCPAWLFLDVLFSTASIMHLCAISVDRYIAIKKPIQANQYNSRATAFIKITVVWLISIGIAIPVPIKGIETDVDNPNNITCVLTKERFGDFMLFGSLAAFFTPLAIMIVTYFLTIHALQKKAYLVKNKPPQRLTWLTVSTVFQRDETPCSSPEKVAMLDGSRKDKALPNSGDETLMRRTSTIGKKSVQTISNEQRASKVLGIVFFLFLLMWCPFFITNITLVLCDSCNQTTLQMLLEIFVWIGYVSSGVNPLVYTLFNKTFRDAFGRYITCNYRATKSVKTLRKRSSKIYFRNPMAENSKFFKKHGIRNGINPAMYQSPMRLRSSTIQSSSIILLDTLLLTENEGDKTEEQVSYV

[1] = test system: Balb/c mice sensitized to OVA; experiment: Airway hyperresponsiveness in OVA-induced murine allergic asthma, whole-body plethysmography with methacholine challenge; format: in vivo, mouse; conditions: 0.5 mg/kg intraperitoneal + OVA, measured 48 hours after final OVA exposure
Procedure: Methods: Experiments were conducted in accordance with the methods of Flanagan et al., ACS Pharmacol Transl Sci. 2020 Aug. 13; 4(2):488-502 with modifications. Briefly, Balb/c mice were sensitized to OVA via IP injection. Mice were then exposed repeatedly to aerosolized OVA to induce acute allergic airway inflammation. Airway responsiveness was assessed using non-invasive whole-body plethysmography (WBP) and methacholine challenge. Lung tissue was analyzed to quantify inflammation and mucus production.
Mice were separated into three experimental groups: 1) Naive mice were not exposed to OVA sensitization and challenge, 2) OVA mice were sensitized and challenged with the allergen OVA to induce allergic airway inflammation and hyperresponsiveness, and 3) 0.5 mg/kg exemplary compound+OVA. The exemplary compound was administered to mice via intraperitoneal injection. Respiratory parameters were measured 48 hours after the final OVA exposure. Airway responsiveness to methacholine was measured using noninvasive whole-body plethysmography (WBP) in unrestrained mice.
Baseline PenH values were recorded for each experimental group, followed by exposure to aerosolized saline or increasing concentrations of methacholine, to assess the sensitivity and reactivity of airways due to its bronchoconstricting activity. PenH values were recorded, and data were analyzed using software. […]

`COCc1cc(CCN)c(O)cc1CC(C)C` [2CiBu-2OH-5MM, 2-(2-aminoethyl)-5-isobutyl-4-(methoxymethyl)phenol] was tested. Which “Mean Percent Inhibition of Control Specific Binding” value (shortened to “Mean Percent Inhibition”) (M1 (h)) did it give?
Its value is 4.9%.

`COCCc1cc(CCN)c(OC)cc1Br` [Compound 2CB-5ME, reference compound] was tested. Which “Mean Percent Inhibition” value (5-HT2A (h); 5-HT2A(h) (agonist radioligand)) did it give?
The value was 98.8%.

What about the EC50 (5-HT2C) of the same molecule?
Its EC50 is 265 nM.

And the “Mean Percent Inhibition” value (5-HT2C (h); 5-HT2C(h) (agonist radioligand))?
Its value is 99.3%.

What about the “Mean Percent Inhibition” value (5-HT2B (h); 5-HT2B(h) (agonist radioligand)) of the same molecule?
The value was 104.1%.

And the “Mean Percent Inhibition” value (M1 (h))?
Its value is 55.4%.

For `COCc1cc(CCN)c(OC)cc1Br` [Compound 2CB-5MM, 2-(4-bromo-2-methoxy-5-(methoxymethyl)phenyl)ethan-1-amine], which EC50 (5-HT2C) is on record?
The EC50 was 225 nM.

What about the “Mean Percent Inhibition” value (M1 (h)) of the same molecule?
The value was 43.4%.

Which results are given for `COCc1cc(CCN)c(OC)cc1CC(C)C` [Compound 2CiBu-5MM, 2-[4-isobutyl-2-methoxy-5-(methoxymethyl)phenyl]ethanamine]?
IC50 (5-HT2A (h)): 57 nM; Ki (5-HT2A (h)): 43 nM; nH (5-HT2A (h); 5-HT2A, Hill coefficient): 0.6; IC50 (5-HT2C (h)): 14 nM; Ki (5-HT2C (h)): 12 nM; nH (5-HT2C (h); 5-HT2C, Hill coefficient): 0.9; IC50 (5-HT2B (h)): 270 nM; Ki (5-HT2B (h)): 130 nM; nH (5-HT2B (h); 5-HT2B, Hill coefficient): 0.7; Mean Percent Inhibition of Control Specific Binding (M1 (h)): 52.6%; PenH response to methacholine (airway hyperresponsiveness) [1]: reduced PenH values to levels representative of normal airway function
